Test results published in ChEMBL document CHEMBL1153165, “Solvent-free, microwave assisted synthesis of polyhalo heterocyclic ketene aminals as novel anti-cancer agents” (Bioorg Med Chem Lett, 2010).
In brackets after ≈: the same amount, converted by molar mass.

Columns and labels:
Format in all cases: functional, cell-based
[1] = test system: K562; assay: Antitumor activity against human K562 cells by MTT assay
[2] = test system: A-431; assay: Antitumor activity against human A431 cells by MTT assay
[3] = test system: HL-60; assay: Antitumor activity against human HL60 cells by MTT assay
[4] = test system: HepG2; assay: Antitumor activity against human HepG2 cells by MTT assay
[5] = test system: SK-OV-3; assay: Antitumor activity against human SKOV3 cells by MTT assay

Row | SMILES | IC50 [1] [µg/mL] | IC50 [2] [µg/mL] | IC50 [3] [µg/mL] | IC50 [4] [µg/mL] | IC50 [5] [µg/mL]
1 | COc1ccc(C(=O)C(=C2NCCN2)c2c(Cl)c(F)c(C#N)c(F)c2C#N)cc1 | 22.6 (≈ 54.5 µM) | 0.7 (≈ 1.69 µM) | 0.05 (≈ 0.121 µM) | 9.8 (≈ 23.6 µM) | 1.1 (≈ 2.65 µM)
2 | N#Cc1c(F)c(Cl)c(C(C(=O)c2ccccc2)=C2NCCN2)c(C#N)c1F | 20.8 (≈ 54.1 µM) | 87.1 (≈ 226 µM) | 4.7 (≈ 12.2 µM) | 32.6 (≈ 84.7 µM) | 32.6 (≈ 84.7 µM)
3 | N#Cc1c(Cl)c(Cl)c(C(C(=O)c2ccccc2)=C2NCCN2)c(C#N)c1Cl | 8.5 (≈ 20.4 µM) | 2.3 (≈ 5.51 µM) | 9.1 (≈ 21.8 µM) | 10.2 (≈ 24.4 µM) | 9.9 (≈ 23.7 µM)
4 | CCOC(=O)C(=C1NCCN1)c1c(Cl)c(Cl)c(C#N)c(Cl)c1C#N | 0.5 (≈ 1.3 µM) | 0.2 (≈ 0.519 µM) | 0.4 (≈ 1.04 µM) | 0.2 (≈ 0.519 µM) | 4.1 (≈ 10.6 µM)
5 | N#Cc1c(F)c(Cl)c(C(C(=O)c2ccccc2)=C2NCCCCN2)c(C#N)c1F | 2.1 (≈ 5.09 µM) | 1.5 (≈ 3.63 µM) | 0.1 (≈ 0.242 µM) | 27.8 (≈ 67.3 µM) | 4.6 (≈ 11.1 µM)
6 | Cc1ccc(C(=O)C(=C2NCCN2)c2c(Cl)c(Cl)c(C#N)c(Cl)c2C#N)cc1 | 1.4 (≈ 3.24 µM) | 4.1 (≈ 9.5 µM) | 15.7 (≈ 36.4 µM) | 15.8 (≈ 36.6 µM) | 9.2 (≈ 21.3 µM)
7 | Cc1ccc(C(=O)C(=C2NCCN2)c2c(Cl)c(F)c(C#N)c(F)c2C#N)cc1 | 41.9 (≈ 105 µM) | 1.7 (≈ 4.26 µM) | 0.03 (≈ 0.0752 µM) | 49.1 (≈ 123 µM) | 6.7 (≈ 16.8 µM)
8 | N#Cc1c(F)c(Cl)c(C(C(=O)c2ccc(Cl)cc2)=C2NCCN2)c(C#N)c1F | 1.6 (≈ 3.82 µM) | 1.8 (≈ 4.29 µM) | 0.3 (≈ 0.716 µM) | 47.5 (≈ 113 µM) | 8.6 (≈ 20.5 µM)
9 | N#Cc1c(F)c(C#N)c(C(C(=O)c2ccccc2)=C2NCCN2)c(F)c1Nc1ccccc1 | 5.6 (≈ 12.7 µM) | 5.3 (≈ 12 µM) | 0.3 (≈ 0.68 µM) | 102 (≈ 231 µM) | 0.2 (≈ 0.453 µM)
10 | N#Cc1c(F)c(F)c(C(C(=O)c2ccccc2)=C2NCCCCN2)c(C#N)c1F | 0.3 (≈ 0.757 µM) | 1.9 (≈ 4.79 µM) | 0.1 (≈ 0.252 µM) | 24.9 (≈ 62.8 µM) | 4.2 (≈ 10.6 µM)
11 | N#Cc1c(F)c(F)c(C(C(=O)c2ccccc2)=C2NCCN2)c(C#N)c1F | 19.6 (≈ 53.2 µM) | 5.5 (≈ 14.9 µM) | 0.2 (≈ 0.543 µM) | 9.1 (≈ 24.7 µM) | 30.3 (≈ 82.3 µM)
12 | N#Cc1c(Cl)c(Cl)c(C(C(=O)c2ccccc2)=C2NCCCCN2)c(C#N)c1Cl | 0.1 (≈ 0.224 µM) | 1 (≈ 2.24 µM) | 0.2 (≈ 0.449 µM) | 14.5 (≈ 32.5 µM) | 2.7 (≈ 6.06 µM)
13 | COc1ccc(C(=O)C(=C2NCCN2)c2c(Cl)c(Cl)c(C#N)c(Cl)c2C#N)cc1 | 0.08 (≈ 0.179 µM) | 0.5 (≈ 1.12 µM) | 2.3 (≈ 5.14 µM) | 10.8 (≈ 24.1 µM) | 6.4 (≈ 14.3 µM)
14 | N#Cc1c(F)c(F)c(C(C(=O)c2ccc(F)cc2)=C2NCCCN2)c(C#N)c1F | 2.5 (≈ 6.24 µM) | 1.8 (≈ 4.5 µM) | 0.04 (≈ 0.0999 µM) | 11 (≈ 27.5 µM) | 0.5 (≈ 1.25 µM)
15 | CCOC(=O)C(=C1NCCN1)c1c(Cl)c(F)c(C#N)c(F)c1C#N | 0.09 (≈ 0.255 µM) | 3.9 (≈ 11.1 µM) | 0.02 (≈ 0.0567 µM) | 2.5 (≈ 7.09 µM) | 4.9 (≈ 13.9 µM)
16 | N#Cc1c(Cl)c(Cl)c(C(C(=O)c2ccc(Cl)cc2)=C2NCCN2)c(C#N)c1Cl | 0.8 (≈ 1.77 µM) | 1.5 (≈ 3.32 µM) | 0.5 (≈ 1.11 µM) | 5.2 (≈ 11.5 µM) | 1.6 (≈ 3.54 µM)
17 | Cc1ccc(C(=O)C(=C2NCCN2)c2c(F)c(F)c(C#N)c(F)c2C#N)cc1 | 0.9 (≈ 2.35 µM) | 0.5 (≈ 1.31 µM) | 0.04 (≈ 0.105 µM) | 29.2 (≈ 76.4 µM) | 2 (≈ 5.23 µM)
18 | CC(=O)C(=C1NCCN1)c1c(Cl)c(F)c(C#N)c(F)c1C#N | 4.4 (≈ 13.6 µM) | 2.9 (≈ 8.99 µM) | 0.3 (≈ 0.93 µM) | 1.3 (≈ 4.03 µM) | 1.5 (≈ 4.65 µM)
19 | N#Cc1c(F)c(Cl)c(C(C(=O)c2ccc(F)cc2)=C2NCCCN2)c(C#N)c1F | 1.8 (≈ 4.32 µM) | 0.9 (≈ 2.16 µM) | 0.6 (≈ 1.44 µM) | 45.1 (≈ 108 µM) | 8.2 (≈ 19.7 µM)
20 | CCOC(=O)C(=C1NCCN1)c1c(F)c(F)c(C#N)c(F)c1C#N | 0.03 (≈ 0.0892 µM) | 3.7 (≈ 11 µM) | 0.02 (≈ 0.0595 µM) | 0.7 (≈ 2.08 µM) | 3.3 (≈ 9.81 µM)
21 | N#Cc1c(Cl)c(Cl)c(C(C(=O)c2ccc(F)cc2)=C2NCCCN2)c(C#N)c1Cl | 0.2 (≈ 0.445 µM) | 1.1 (≈ 2.45 µM) | 2.1 (≈ 4.67 µM) | 31.8 (≈ 70.7 µM) | 10.4 (≈ 23.1 µM)
22 | CC(=O)C(=C1NCCN1)c1c(Cl)c(Cl)c(C#N)c(Cl)c1C#N | 0.1 (≈ 0.281 µM) | 1.5 (≈ 4.22 µM) | 3.7 (≈ 10.4 µM) | 5.8 (≈ 16.3 µM) | 14.1 (≈ 39.6 µM)
23 | N#Cc1c(F)c(F)c(C(C(=O)c2ccc(Cl)cc2)=C2NCCN2)c(C#N)c1F | 1.8 (≈ 4.47 µM) | 3.2 (≈ 7.95 µM) | 0.3 (≈ 0.745 µM) | 12.5 (≈ 31 µM) | 3.8 (≈ 9.43 µM)
